{
  "source": "patent US20250120957A1",
  "about": "“TREATMENT OF NEUROPSYCHIATRIC DISORDERS WITH TILIVAPRAM” (Alto Neuroscience, Inc., priority 2023, published 2025)",
  "type_in_all_cases": "in vivo, human",
  "key": {"[1]": {"test_system": "healthy patients aged 40 to 65 years old", "assay": "Phase 1 three-way crossover study: computerized neurocognitive test battery", "conditions": "for global cognition, effect size d relative to placebo / memory, effect size d relative to placebo: 0.5 mg oral", "protocol": "(§1) A phase 1 three-way, crossover study was performed as shown in FIG. 1 on healthy patients aged 40 to 65 years old to determine dose and pharmacodynamic outcomes. Patients in the fasted state were orally administered 0.5 or 1.5 mg tilivapram or placebo in the form of an immediate release suspension. Outcomes were measured with a computerized neurocognitive test battery, resting 19 channel EEG, and cognitive task ERPs (event-related potentials). 44 patients were dosed (and used for AE analyses), of which 40 received all three doses (and used for analysis of cognitive, EEG and ERP outcomes).\nTilivapram has a wide therapeutic window in the finger tapping task as there were significant decreases in latency at both the 0.5 mg and 1.5 mg doses.\nThe effect of tilivapram versus placebo on cognition was examined between subgroups of the study sample differing in their global cognitive composite score at baseline. […] However, examining only participants with baseline global cognition below healthy norms (z<−0.5), the effect of 0.5 mg tilivapram relative to placebo increased to d=0.861, p=0.034. […] Examining participants with global cognition of z<−0.5, the effect on memory becomes larger and statistically significant (d=0.797, p=0.048)."}, "[2]": {"test_system": "healthy patients aged 40 to 65 years old", "assay": "Phase 1 three-way crossover study: adverse events", "protocol": "as §1\nThe adverse events were primarily nausea, as expected given the well-known dose-limiting effects of PDE4 inhibitors on nausea. Approximately 28% of people experienced nausea at the 1.5 mg dose, while only 2% did so at the 0.5 mg dose. […] Only one patient discontinued treatment due to an adverse event at the higher dose (1.5 mg) of tilivapram."}, "[3]": {"test_system": "participants", "assay": "Phase I open-label 2-way cross-over study of oral solution vs transdermal delivery system: related adverse events", "protocol": "A phase I, open-label, fixed period, 2-way cross-over study was performed to establish the pharmacokinetics and safety of a transdermal delivery system containing tilivapram. In Period 1 Day 1 (P1D1), participants were dosed with 1.0 mg of tilivapram in a liquid oral solution in a fasted state. After a 7-day washout period, participants were dosed with the first set of 4 patches applied by study staff on Period 2 Day 1 (P2D1), which were then removed after 24 hours and 4 new patches applied for an additional 24 hours on Period 2 Day 2 (P2D2) for a total of 48 hours. All but one of the 15 subjects completed the study. One subject withdrew after receiving the oral solution."}, "[4]": {"test_system": "healthy patients aged 40 to 65 years old", "assay": "Phase 1 three-way crossover study: resting 19 channel EEG and cognitive task ERPs", "conditions": "vs placebo", "protocol": "as §1\nTheta (4-8 Hz) is an EEG rhythm involving connections between the hippocampus and prefrontal cortex. Frontal midline resting theta power is elevated across a range of cognitive disorders, such as schizophrenia, ADHD, Parkinson's disease, Alzheimer's disease and mild cognitive impairment (MCI) (see Newson et al., Front Hum Neurosci., 2019, 12:521 (PMID 30687041)). Increased theta power correlates with poorer cognitive task performance. […] Tilivapram has a wide therapeutic window as there were significant decreases in theta power at both the 0.5 mg and 1.5 mg doses.\nStimulus-induced theta response, such as measured by inter-trial coherence, phase locking factor or event-related spectral perturbation, reflect the brain response during stimulus processing, is reduced in patients with schizophrenia, and the degree of reduction is correlated with the degree of cognitive impairment in these patients (Lee at al., Mol Psychiatry, 2017, 22 (11): 1585-1593, PMID 28167837; Martínez et al., Front Hum Neurosci., 2015, 9:371, PMID 26190988; Xiong et al.,Front Hum Neurosci., 2019, 13:37, PMID 30894804; Hua et al., Biol Psychiatry Cogn Neurosci Neuroimaging., 2023, 8 (12): 1186-1196, PMID: 36931469; Hochberger et al., Int. J. Psychophysiology, 2019, 145:23-29, PMID: 30586570; Wolff et al., Cerebral Cortex, 2022, 32:3441-3456: PMID: 34875019).\nEvoked sensory gamma-based responses represent both basic sensory processing as well as higher cognitive functions, such as attention and memory. The onset of a stimulus triggers precisely timed local processing, evident as an increase in gamma-band intertrial phase locking. Gamma-band phase locking at ˜50 ms after stimulus onset is reduced in schizophrenia and other psychotic spectrum disorders such as bipolar disorder (see Roach et al., Schizophr Bull., 34 (5): 907-26, 2008 (PMID 18684772); Javitt et al., Neuropsychopharmacology, 45 (9): 1411-1422, 2020 (PMID 32375159)). […]"}, "[5]": {"conditions": "0.5 and 1.5 mg oral, vs placebo"}, "[6]": {"conditions": "oral N=15, transdermal N=14, overall N=15"}},
  "data": [
    {"smiles": "COc1cnc(C(=O)Nc2c(Cl)c[n+]([O-])cc2Cl)cc1OCC1CC1", "note": "[tilivapram, 4-(cyclopropylmethoxy)-N-(3,5-dichloro-1-oxidopyridin-4-yl)-5-methoxypyridine-2-carboxamide]", "values": [
      {"measurement": "global cognition, effect size d relative to placebo", "setting": "[1]; full sample, p=0.223", "value": 0.274},
      {"measurement": "memory, effect size d relative to placebo", "setting": "[1]; full sample, p=0.359", "value": 0.207},
      {"measurement": "global cognition, effect size d relative to placebo", "setting": "[1]; participants with baseline global cognition z<−0.5, p=0.034", "value": 0.861},
      {"measurement": "memory, effect size d relative to placebo", "setting": "[1]; participants with global cognition z<−0.5, p=0.048", "value": 0.797},
      {"measurement": "processing speed (composite z-score of simple reaction time, choice reaction time and Eriksen flanker tasks)", "setting": "[1]; [5]", "value": "improved processing speed"},
      {"measurement": "psychomotor speed (latency in a finger tapping task)", "setting": "[1]; [5]", "value": "improved psychomotor speed"},
      {"measurement": "people experiencing nausea", "setting": "[2]; 0.5 mg oral dose", "value": 2, "unit": "%"},
      {"measurement": "dizziness and lightheadedness", "setting": "[2]; 0.5 mg to 1.5 mg oral", "value": "substantially increased in a dose-related manner"},
      {"measurement": "patients who discontinued treatment due to an adverse event", "setting": "[2]; 1.5 mg oral dose", "value": "one"},
      {"measurement": "people experiencing nausea", "setting": "[2]; 1.5 mg oral dose", "value": "Approximately 28%"},
      {"measurement": "adverse events", "setting": "[2]; from the 0.5 mg dose to the 1.5 mg dose, oral", "value": "increased substantially"},
      {"measurement": "Number of participants with at least 1 TEAE", "setting": "[3]; oral 1.0 mg fasted N=15, 4 patches x 2 days N=14, overall N=15", "value": "11 (73.3) n (%)"},
      {"measurement": "Abdominal pain", "setting": "[3]; [6]", "value": "0 n (%)"},
      {"measurement": "Administration site erythema", "setting": "[3]; [6]", "value": "0 n (%)"},
      {"measurement": "Administration site pain", "setting": "[3]; [6]", "value": "0 n (%)"},
      {"measurement": "Administration site pruritus", "setting": "[3]; [6]", "value": "2 (13.3) n (%)"},
      {"measurement": "Arthralgia", "setting": "[3]; [6]", "value": "0 n (%)"},
      {"measurement": "Asthenia", "setting": "[3]; [6]", "value": "1 (6.7) n (%)"},
      {"measurement": "Dermatitis acneiform", "setting": "[3]; [6]", "value": "0 n (%)"},
      {"measurement": "Diarrhea", "setting": "[3]; [6]", "value": "1 (6.7) n (%)"},
      {"measurement": "Dizziness", "setting": "[3]; [6]", "value": "6 (40.0) n (%)"},
      {"measurement": "Dyspepsia", "setting": "[3]; [6]", "value": "1 (6.7) n (%)"},
      {"measurement": "Ear and labyrinth disorders", "setting": "[3]; [6]", "value": "1 (6.7) n (%)"},
      {"measurement": "Fatigue", "setting": "[3]; [6]", "value": "0 n (%)"},
      {"measurement": "Gastrointestinal disorders", "setting": "[3]; [6]", "value": "3 (20.0) n (%)"},
      {"measurement": "General disorders and administration site conditions", "setting": "[3]; [6]", "value": "2 (13.3) n (%)"},
      {"measurement": "Headache", "setting": "[3]; [6]", "value": "6 (40.0) n (%)"},
      {"measurement": "Insomnia", "setting": "[3]; [6]", "value": "0 n (%)"},
      {"measurement": "Irritability", "setting": "[3]; [6]", "value": "0 n (%)"},
      {"measurement": "Musculoskeletal and connective tissue disorders", "setting": "[3]; [6]", "value": "0 n (%)"},
      {"measurement": "Nausea", "setting": "[3]; [6]", "value": "3 (20.0) n (%)"},
      {"measurement": "Nervous system disorders", "setting": "[3]; [6]", "value": "8 (53.3) n (%)"},
      {"measurement": "Neuralgia", "setting": "[3]; [6]", "value": "0 n (%)"},
      {"measurement": "Number of TEAEs", "setting": "[3]; [6]", "value": 28},
      {"measurement": "Psychiatric disorders", "setting": "[3]; [6]", "value": "0 n (%)"},
      {"measurement": "Skin and subcutaneous tissue disorders", "setting": "[3]; [6]", "value": "0 n (%)"},
      {"measurement": "Vertigo", "setting": "[3]; [6]", "value": "1 (6.7) n (%)"},
      {"measurement": "theta intertrial coherence at the Cz electrode", "setting": "[4]; 0.5 mg and 1.5 mg oral, auditory stimulus", "value": "increased theta intertrial coherence"},
      {"measurement": "theta relative power at the Fz electrode (resting EEG)", "setting": "[4]; 0.5 and 1.5 mg oral immediate release suspension, fasted", "value": "decreased theta relative power"},
      {"measurement": "gamma-band phase locking approximately 50 ms after onset of a tone auditory stimulus", "setting": "[4]; 0.5 and 1.5 mg oral, Pz electrode", "value": "increased gamma-band phase locking"},
      {"measurement": "mismatch negativity (MMN) at the Fz electrode", "setting": "[4]; 0.5 and 1.5 mg oral, oddball task", "value": "increased MMN"}
    ]}
  ]
}
